Molecular target: T1, human ANO6 (variant 5) (Homo sapiens, UniProt Q4KMQ2)
T1 construct: expressed in transfected cells; host or cells: Fischer rat thyroid (FRT) cells
T1 sequence (Q4KMQ2 1-931 isoform Q4KMQ2-2): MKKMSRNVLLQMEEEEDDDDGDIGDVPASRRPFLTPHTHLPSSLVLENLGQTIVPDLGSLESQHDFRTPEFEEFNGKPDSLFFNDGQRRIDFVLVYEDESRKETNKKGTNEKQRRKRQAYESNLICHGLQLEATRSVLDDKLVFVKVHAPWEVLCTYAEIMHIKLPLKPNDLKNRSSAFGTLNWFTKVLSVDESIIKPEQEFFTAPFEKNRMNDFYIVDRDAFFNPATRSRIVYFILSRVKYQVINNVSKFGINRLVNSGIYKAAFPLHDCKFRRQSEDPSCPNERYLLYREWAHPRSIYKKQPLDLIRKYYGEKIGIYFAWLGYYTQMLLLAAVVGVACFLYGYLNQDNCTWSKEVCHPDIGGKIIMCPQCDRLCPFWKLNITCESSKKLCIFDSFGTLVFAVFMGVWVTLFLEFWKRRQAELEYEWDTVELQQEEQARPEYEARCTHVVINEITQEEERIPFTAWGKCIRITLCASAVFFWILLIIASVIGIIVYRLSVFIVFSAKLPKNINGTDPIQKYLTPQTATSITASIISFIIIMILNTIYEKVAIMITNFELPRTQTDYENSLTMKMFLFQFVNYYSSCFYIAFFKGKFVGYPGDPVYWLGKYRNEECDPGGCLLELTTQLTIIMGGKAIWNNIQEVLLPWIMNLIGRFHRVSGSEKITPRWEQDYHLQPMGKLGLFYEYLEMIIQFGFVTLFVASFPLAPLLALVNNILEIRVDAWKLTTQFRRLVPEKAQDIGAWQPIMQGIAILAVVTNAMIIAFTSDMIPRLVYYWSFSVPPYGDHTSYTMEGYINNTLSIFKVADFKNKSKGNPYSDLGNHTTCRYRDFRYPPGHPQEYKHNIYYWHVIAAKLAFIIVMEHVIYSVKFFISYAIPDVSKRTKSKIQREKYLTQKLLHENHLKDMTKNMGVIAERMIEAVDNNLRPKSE
Experiment: Lact C2 assay (measuring phosphatidylserine externalization scramblase function)
Type: cell-based
Details: FRT, FRT cells expressing human ANO6 (variant 5), ionomycin 10 µM, Lact-C2-GFP fluorescence, average of three tests; for inhibition at 0.05 µM: compound 50 nM, read-out: % Inhibition 50 nM; for inhibition at 1 µM: compound 1 µM, read-out: % Inhibition 1 µM
Procedure, shortened: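 Cells were pretreated 10 min with compound (50 nM, 100 nM, 1 µM; 1% DMSO), then given 10 µM ionomycin for 10 min. Surface phosphatidylserine was stained with 500 nM Lact-C2-GFP (10 min, 37 °C), fixed and imaged. Inhibition was scaled between untreated (100%) and ionomycin-alone (0%) wells.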

SMILES	inhibition at 0.05 µM [%]	inhibition at 1 µM [%]
Fc1cc2nc(-c3cccc(Nc4cnc(-c5ccccn5)cn4)c3)[nH]c2cc1F [Example 298, N-(3-(5,6-difluoro-1H-benzo[d]imidazol-2-yl)phenyl)-5-(pyridin-2-yl)pyrazin-2-amine]	30 to 60	> 60
COc1ccc2nc(-c3cccc(Nc4cnc(-c5ccccn5)cn4)c3)[nH]c2c1 [Example 299, N-(3-(6-methoxy-1H-benzo[d]imidazol-2-yl)phenyl)-5-(pyridin-2-yl)pyrazin-2-amine]	–	> 60
FC(F)Oc1ccc2nc(-c3cccc(Nc4cnc(-c5ccccn5)cn4)c3)[nH]c2c1 [Example 300, N-(3-(6-(difluoromethoxy)-1H-benzo[d]imidazol-2-yl)phenyl)-5-(pyridin-2-yl) pyrazin-2-amine]	30 to 60	> 60
Clc1cc2[nH]c(-c3cccc(Nc4cnc(-c5ccccn5)cn4)c3)nc2cn1 [Example 301, N-(3-(6-chloro-1H-imidazo[4,5-c]pyridin-2-yl)phenyl)-5-(pyridin-2-yl)pyrazin-2-amine]	–	> 60
FC(F)(F)c1ccc2nc(-c3cccc(Nc4cnc(-c5ccccn5)cn4)c3)[nH]c2c1 [Example 302, 5-(pyridin-2-yl)-N-(3-(6-(trifluoromethyl)-1H-benzo[d]imidazol-2-yl)phenyl)pyrazin-2-amine]	> 60	> 60
Clc1cc2[nH]c(-c3cccc(Nc4ncc(-c5cscn5)cn4)c3)nc2cn1 [Example 303, N-(3-(6-chloro-1H-imidazo[4,5-c]pyridin-2-yl)phenyl)-5-(thiazol-4-yl)pyrimidin-2-amine]	–	> 60
FC(F)(F)c1ccc2nc(-c3cccc(Nc4ncc(-c5cscn5)cn4)c3)[nH]c2c1 [Example 304, 5-(thiazol-4-yl)-N-(3-(6-(trifluoromethyl)-1H-benzo[d]imidazol-2-yl)phenyl)pyrimidin-2-amine]	30 to 60	> 60
Fc1ccnc(-c2ccc(Nc3cccc(-c4nc5ccc(C(F)(F)F)cc5[nH]4)c3)cc2)c1 [Example 305, N-(4-(4-fluoropyridin-2-yl)phenyl)-3-(6-(trifluoromethyl)-1H-benzo[d]imidazol-2-yl)aniline]	30 to 60	> 60
FC(F)(F)c1ccc2nc(-c3ccnc(Nc4ncc(-c5ccccn5)cn4)c3)[nH]c2c1 [Example 306, 5-(pyridin-2-yl)-N-(4-(6-(trifluoromethyl)-1H-benzo[d]imidazol-2-yl)pyridin-2-yl)pyrimidin-2-amine]	–	30 to 60
FC(F)(F)c1ccc2nc(-c3cncc(Nc4ncc(-c5ccccn5)cn4)c3)[nH]c2c1 [Example 307, 5-(pyridin-2-yl)-N-(5-(6-(trifluoromethyl)-1H-benzo[d]imidazol-2-yl)pyridin-3-yl)pyrimidin-2-amine]	–	30 to 60
Brc1ccc2nc(-c3cccc(Nc4ccc(-c5cccnn5)cc4)c3)[nH]c2c1 [Example 308, 3-(6-bromo-1H-benzo[d]imidazol-2-yl)-N-(4-(pyridazin-3-yl)phenyl)aniline]	> 60	> 60
N#Cc1ccc(Nc2cccc(-c3nc4ccc(C(F)(F)F)cc4[nH]3)c2)nc1 [Example 314, 6-((3-(6-(trifluoromethyl)-1H-benzo[d]imidazol-2-yl)phenyl)amino)nicotinonitrile]	> 60	> 60
N#Cc1ccc(Nc2cccc(-c3nc4ccc(C(F)(F)F)cc4[nH]3)c2)cc1 [Example 315, 4-((3-(6-(trifluoromethyl)-1H-benzo[d]imidazol-2-yl)phenyl)amino)benzonitrile]	–	> 60
Fc1ccccc1-c1ccc(Nc2cccc(-c3nc4ccccc4[nH]3)c2)cc1 [Example 322, N-(3-(1H-benzo[d]imidazol-2-yl)phenyl)-2'-fluoro-[1,1'-biphenyl]-4-amine]	–	> 60

— patent publication EP4559908A1, “HETEROARYL DERIVATIVE COMPOUND AND USE THEREOF” (S2CBio Inc., priority 2022, dated 2024)
